Experiments:
[1] = test system: CDH1-null cells; assay: Ectopic expression of RHOA dominant negative forms in CDH1-null cells; assay type: cell-based
Excerpt: (§1) Diffuse Gastric Cancer (DGC) is a highly lethal variant of gastric cancer, which is prone to early invasion and metastasis, and lacks effective molecularly targeted therapies. DGC initiation typically follows loss of tumor suppressor CDH1 which encodes the cellular adhesion protein E-cadherin. Reduction in and/or loss of E-cadherin (CDH1) is the key hallmark of invasive lobular breast cancer and loss-of-function mutations targeting CDH1 are present in 50%-60% of invasive lobular breast cancer and are believed to be an early event often observed in matching lobular carcinoma in situ (McCart Reed et al. (2015) Breast Cancer Res. 17:12). […] These findings indicate that RHOA dominant negative forms can be used as an effective therapy for DGC and lobular breast cancer as well as other cancers with the EMT phenotype.

[2] = test system: cells with intact CDH1; assay: Ectopic expression of RHOA dominant negative forms in cells with intact CDH1; assay type: cell-based
Excerpt: as §1

[3] = test system: NUGC4 tumor; assay: NUGC4 xenograft tumor growth with Dox-induced mutant RHOA expression; assay type: in vivo; conditions: E-cadherin loss DGC cells in flank of nude mice; Dox food after 2 weeks; P<0.0001 Ctrl vs T19N
Procedure: (§2) Diffuse gastric cancer (DGC) NUGC4 cells were confirmed for total E-cadherin loss by Western blot analysis. The cells were then stably infected with Dox-inducible lenti-RHOA virus using puro selection. Three million NUGC4 cells were injected into the flank of nude mice. After 2 weeks, regular food was changed to food with Dox in order to induce mutant RHOA expression. N=3 mice for each group. P<0.0001: Ctrl-VS-T19N.
(§3) The 4-week-old male nude mice (BALB/cA-nu (nu/nu)) were injected subcutaneously at each flank with cells infected with dox inducible control or RHOA mutant virus. All animals were maintained and used in accordance with the guidelines of the Institutional Animal Care and Use Committee of Dana-Farber Cancer Institute.

[4] = test system: CDH1-intact MCF10A cells; assay: Cell titer glo assay in isogenic MCF10A-CDH1-intact cells with constitutive RHOA mutant virus; assay type: cell-based; conditions: constitutive expression
Procedure: (§4) Isogenic MCF10A-CDH1-intact cells were infected with different constitutive RHOA mutant virus and the stably infected cells were selected by adding puro for 1 week. The cells were then plated in 96-well plates for analysis using a cell titer glo assay. The MCF10A-CDH1-K0 cells were infected with different Dox-inducible RHOA mutant viruses and the stably-infected cells were selected by adding puro for 1 week. The cells were then plated in 96-well plates with Dox induction for cell titer glo assay analysis.
(§5) Cell viability assay was performed by following the protocol of CellTiter-Glo® (Promega, Cat #G7570).

[5] = test system: MKN45 tumor; assay: MKN45 xenograft tumor growth with Dox-induced mutant RHOA expression; assay type: in vivo; conditions: E-cadherin loss diffuse adenocarcinoma cells in flank of nude mice; Dox food after 2 weeks; P<0.0001 Ctrl vs T19N
Procedure: as §2, with “The diffuse adenocarcinoma MKN45” for “Diffuse gastric cancer (DGC) NUGC4”, “MKN45” for “NUGC4”
as §3

[6] = test system: CDH1-null stomach organoids; assay: RHOA ectopic expression in isogenic stomach organoids after tamoxifen-induced E-cadherin loss; assay type: cell-based, mouse; conditions: ectopic expression by lentivirus; Mist1CreER, Cdh1F/F organoids treated with tamoxifen to induce E-cadherin loss
Procedure: Mist1CreER, Cdh1^F/F organoids were infected with plx307 lenti-EGFP/RHOA-WT/RHO-T19N virus, and the stably infected organoids were selected by adding puro for 1 week. The cells were then treated with or without tamoxifen to activate Cre to induce E-cadherin loss. The RHOA ectopic expression and E-Cadherin loss were validated both Western blot and Tomato/GFP color switch determinations.
Mist1-CreERT2, Cdh1flox/flox, Tomation/GFP mice, which carry conditional alleles with loxP sites flanking exon 2-3 of Cdh1, were kindly provided by Timothy C. Wang at Columbia University. Cre recombinase was activated by oral administration of tamoxifen (Sigma, T5648) TAM (1-5 mg/0.2 ml corn oil, as indicated). All animal studies and procedures were approved by the ethics committees at Dana-Farber Cancer Institute.
The protocol as previously described in Miyoshi et al. (2013) Nat. Prot. 8:2471-2482 was performed as follows: Euthanize mice using a chemical reagent, open the stomach longitudinally and roughly remove contents on the paper towel. Rinse the tissue with ice cold PBS in a 90 mm petri dish, then wash the tissue with […] ice cold PBS in a 50 ml centrifuge tube by vigorous shaking. After washing, place the tissue in a 35 mm petri dish and bring the dish to a biological hood and mince the tissue with fine scissors. […]

[7] = test system: CDH1-null breast epithelial MCF10A cells; assay: Cell titer glo assay in MCF10A-CDH1-KO cells with Dox-inducible RHOA mutant virus; assay type: cell-based; conditions: Dox-inducible expression
Procedure: as §4, §5

| Substance | cell-death in CDH1-null cells [1] | proliferation of CDH1-null cells [1] | inhibition of proliferation and induction of cell-death in cells with intact CDH1 [2] | NUGC4 tumor growth [3] | effect on CDH1-intact MCF10A cells [4] | MKN45 tumor growth [5] | killing of CDH1-null stomach organoids [6] | killing of CDH1-null MCF10A cells [7] |
| --- | --- | --- | --- | --- | --- | --- | --- | --- |
| G17E: Human RHOA G17E dominant negative form (SEQ ID NO: 3), ectopically expressed | induction of cell-death | significant inhibition of proliferation | not in cells with intact CDH1 |  |  |  |  |  |
| G17V: Human RHOA G17V dominant negative form (SEQ ID NO: 2), ectopically expressed | induction of cell-death | significant inhibition of proliferation | not in cells with intact CDH1 |  |  |  |  |  |
| RHOA-T19N: Human RHOA T19N dominant negative form (SEQ ID NO: 1), ectopically expressed from lentivirus | induction of cell-death | significant inhibition of proliferation | not in cells with intact CDH1 | significantly inhibit | spares | significantly inhibit | specifically kills | specifically kills |

From patent US11957739B2, “Compositions and methods for treating cancer using RHOA dominant negative forms” (Dana-Farber Cancer Institute, Inc., priority 2017, dated 2024)
